In US10676780B2, “Stabilisation and isolation of extracellular nucleic acids” (QIAGEN GmbH, priority 2011, dated 2020):
Where a SMILES comes first, the peptide text is derived from it. The star is where a group is joined. Cbz = O=C(OCc1ccccc1)*; CH2Cl = ClC*; CH2F = FC*

What was measured:
anthrax lethal factor = anthrax lethal factor (Bacillus anthracis, UniProt P15917); details: cited from earlier work
MCF7 breast cancer cells = details: at 20 μM; cited from earlier work
whole blood samples [1] = test: ribosomal 18S DNA duplex real time PCR: increase of DNA in plasma of stored whole blood; format: cell-based, human; details: for x-fold increase of ribosomal 18S DNA in plasma: 20 μM in 10 ml blood; for x-fold increase of ribosomal 18S DNA in plasma / increase of genomic DNA in the plasma (18S DNA duplex assay): within 7 days of storage at RT
Method: (§1) A test system was designed, wherein cell-containing biological samples, here whole blood samples, were incubated at room temperature (RT) for up to 6 or 7 days. Therein, the sample stabilizing properties of the additives of the present invention were tested on day 0, day 3 and day 6/7 the samples.
(§2) The circulating, extracellular nucleic acids were purified from the obtained plasma samples using the QIAamp® Circulating NA Kit (according to the handbook). In brief: • 10 ml sample input; • lysis: 1 ml Proteinase K and 8 ml Buffer ACL (QIAGEN) • binding: 18 ml Buffer ACB (QIAGEN) • wash-steps: unchanged and according to handbook • elution in 60 μl Buffer AVE (QIAGEN) 4. Analysis of the Eluates
4.2. DNA quantification with a real time PCR assay, sensitive for DNA degradation (target: 500 and 66 bp long ribosomal 18S DNA coding sequences).
(samples were diluted 1:10 before amplification)
Detection of ribosomal 18S DNA by quantitative real-time PCR, makes it possible to calculate the x-fold increase of DNA from day 0 to day 3 or 7 (calculation: division of day 3 (or 7) copies by day 0 copies).
The division of short amplicon copy number by long amplicon copy number (66 by/500 bp) indicates whether the amount of detected short or long amplicons changes over time in a similar way. A decrease of this ratio implies a stronger release of longer rather than of shorter DNA molecules and can be interpreted as release of high molecular weight genomic DNA from blood cells.
On day 0, day 3 and day 6, replicates were processed as follows. […] The collected plasma was centrifuged at 16,000×g for 10 minutes at 4° C. The cleared plasma fraction was collected and the extracellular nucleic acids were isolated using the QIAamp Circulating nucleic acid kit (1 ml input material, 60 μl elution volume). […] Values that are close to 1 imply preserved levels of ccfDNA. The higher the value, the less stabilization is achieved.

whole blood samples [2] = test: DNA size distribution by chip gel electrophoresis of DNA isolated from plasma of stored whole blood; format: cell-based; details: for ladder-like pattern of DNA bands (release/fragmentation of genomic DNA): 20 μM end concentration in 10 ml blood, stored at RT, day 3 and day 7, vs DMSO control and K2E blood; for genomic DNA release/fragmentation: day 7, RT
Method: as §1, with “samples. The samples were processed according to the following protocols, where applicable (for details, see also the specific examples in the results section):” for “samples.”
To separate the blood plasma from the whole blood, the blood samples were centrifuged for 15 min at 5000 rpm, and the obtained plasma samples were again centrifuged for 10 min at 16.000×g at 4° C.
as §2
4.1. Measurement of the blood cell stability/DNA release by the determination of DNA size distribution using a chip gel electrophoresis (2100 Bioanalyzer; Agilent Technologies; Inc., USA) according to manufacturer's instruction (see handbook Agilent DNA 7500 and DNA 12000 Kit Guide), but 1.5 μl instead of 1 μl sample were transferred to the wells.
The eluted circulating cell-free DNA was separated by size using chip gel electrophoresis (for details on the method see above, I, 4.1). […] The DMSO control and the K2E blood (not treated according to the teachings of the present invention) show the same ladder-like pattern of bands. This pattern occurs in samples where apoptosis takes place. During apoptosis, endonucleases degrade genomic DNA at inter-nucleosomal linker regions and produce DNA fragments of circa 180 bp or multiples of 180 bp. Thus, apoptosis occurs in samples which show a clear ladder-like pattern. Furthermore, the strength (darkness) of the pattern is decisive. The darker the bands, the more genomic DNA was released from the cells and thus contaminates the extracellular nucleic acid population.

caspase-8 = caspase-8 (Homo sapiens, UniProt Q14790); details: cited from earlier work
caspase-8, sequence (Q14790 217-479, species assumed): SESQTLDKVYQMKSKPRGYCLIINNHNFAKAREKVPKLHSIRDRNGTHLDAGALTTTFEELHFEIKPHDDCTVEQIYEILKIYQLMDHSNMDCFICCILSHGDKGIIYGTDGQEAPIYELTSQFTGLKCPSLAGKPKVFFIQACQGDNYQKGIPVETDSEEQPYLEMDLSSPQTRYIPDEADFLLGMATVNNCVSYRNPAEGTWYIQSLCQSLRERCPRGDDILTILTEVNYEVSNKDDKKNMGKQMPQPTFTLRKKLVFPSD

[3] = target: T1, human recombinant caspase-1 (Homo sapiens, UniProt P29466); details: cited from earlier work
T1 sequence (P29466 120-404): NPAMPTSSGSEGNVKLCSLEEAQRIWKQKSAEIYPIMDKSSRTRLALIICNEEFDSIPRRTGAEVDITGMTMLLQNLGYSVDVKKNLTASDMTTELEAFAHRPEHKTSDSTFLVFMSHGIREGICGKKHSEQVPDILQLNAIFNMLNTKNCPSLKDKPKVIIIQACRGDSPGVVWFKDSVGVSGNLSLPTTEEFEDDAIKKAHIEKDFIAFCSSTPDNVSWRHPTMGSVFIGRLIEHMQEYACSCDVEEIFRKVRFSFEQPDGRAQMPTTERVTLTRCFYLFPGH

[4] = administered in rats in vivo; cited from earlier work
[5] = tested on: etoposide-induced cortical neuron death; details: cited from earlier work; for EC50: read-out: ED50 (the source's name)
[6] = target: Bax (Bcl-2-associated X protein) (Homo sapiens, UniProt Q07812); details: cited from earlier work
Bax (Bcl-2-associated X protein), sequence (Q07812 whole entry): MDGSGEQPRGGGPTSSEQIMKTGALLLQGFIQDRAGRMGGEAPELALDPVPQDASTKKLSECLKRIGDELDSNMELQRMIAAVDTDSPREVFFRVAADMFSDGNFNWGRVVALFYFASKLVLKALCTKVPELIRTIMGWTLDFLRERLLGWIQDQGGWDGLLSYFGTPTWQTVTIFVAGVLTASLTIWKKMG

[7] = neuron culture medium at 37° C.; cited from earlier work
Bax-mediated apoptosis = details: cited from earlier work
mitochondrial division = details: cited from earlier work
fragmentin 2 = target: T2, fragmentin 2 (Rattus norvegicus, UniProt P18291); details: read-out: ID50 (the source's name); cited from earlier work
T2 sequence (P18291 21-248): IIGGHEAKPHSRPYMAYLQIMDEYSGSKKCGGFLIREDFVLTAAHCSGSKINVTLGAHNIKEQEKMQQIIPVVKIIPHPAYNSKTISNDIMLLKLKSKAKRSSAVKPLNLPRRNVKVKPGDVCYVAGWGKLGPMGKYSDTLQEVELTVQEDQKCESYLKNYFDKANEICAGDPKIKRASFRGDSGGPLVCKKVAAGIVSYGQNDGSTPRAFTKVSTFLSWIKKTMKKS

anthrax lethal factor, sequence (P15917 34-809 limits assumed): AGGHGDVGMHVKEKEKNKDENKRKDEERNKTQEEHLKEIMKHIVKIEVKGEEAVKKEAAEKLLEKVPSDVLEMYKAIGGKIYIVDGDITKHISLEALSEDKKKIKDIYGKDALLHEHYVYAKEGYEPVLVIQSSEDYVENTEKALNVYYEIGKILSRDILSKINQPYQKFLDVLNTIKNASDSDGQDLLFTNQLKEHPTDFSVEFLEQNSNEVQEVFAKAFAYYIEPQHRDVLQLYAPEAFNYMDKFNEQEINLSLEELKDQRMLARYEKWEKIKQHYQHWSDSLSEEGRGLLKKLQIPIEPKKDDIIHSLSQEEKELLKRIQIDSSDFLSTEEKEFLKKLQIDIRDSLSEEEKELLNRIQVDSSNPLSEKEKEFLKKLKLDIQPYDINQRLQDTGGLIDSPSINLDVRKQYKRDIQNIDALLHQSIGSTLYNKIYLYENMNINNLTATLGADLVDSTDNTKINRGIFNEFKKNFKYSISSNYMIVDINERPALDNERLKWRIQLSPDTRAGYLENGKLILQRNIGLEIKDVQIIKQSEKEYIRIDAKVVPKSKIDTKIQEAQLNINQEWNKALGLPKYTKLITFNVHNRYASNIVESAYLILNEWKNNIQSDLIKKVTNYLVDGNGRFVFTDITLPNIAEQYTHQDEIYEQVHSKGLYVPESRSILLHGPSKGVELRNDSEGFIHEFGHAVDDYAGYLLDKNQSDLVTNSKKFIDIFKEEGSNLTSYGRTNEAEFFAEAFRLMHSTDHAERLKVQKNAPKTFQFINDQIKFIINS

## FC(F)(F)c1cccc(-c2csc(C3COc4ccccc4O3)n2)c1 (stereo not drawn) [Caspase Inhibitor X]
Anthrax lethal factor
  effect on activity: assisted cleavage of BID, a proapoptotic protein. Weakly affects

## O=C(C=Cc1ccc(C=CC(=O)Nc2ccc(C3=NCCN3)cc2)cc1)Nc1ccc(C2=NCCN2)cc1 [GW 4869]
MCF7 breast cancer cells
  protection against cell death: specific PLC. Reported to offer complete protection against TNF-α

## COC(=O)C[C@H](NC(=O)[C@H](C)NC(=O)[C@@H](NC(=O)OCc1ccccc1)C(C)C)C(=O)CF [Z-Val-Ala-Asp(OMe)-FMK] (Cbz-Val-Ala-Asp(OMe)-CH2F)
Whole blood samples [1]
  x-fold increase of ribosomal 18S DNA in plasma: more prominent on day 7
Whole blood samples [2]
  ladder-like pattern of DNA bands (release/fragmentation of genomic DNA): reduced ladder-like pattern

## Ac-IETD-aldehyde
caspase-8
  Ki: 1 nM

## Ac-Tyr-Val-Ala-Asp-CHO [Caspase-1 Inhibitor I]
[3]
  Ki: 0.2 nM

## CC(C)C(NC(=O)c1ccc2ccccc2n1)C(=O)NC(CC(=O)O)C(=O)COc1c(F)cccc1F (stereo not drawn) [Q-VD-OPh, Quinoline-Val-Asp-CH2-OPH]
Whole blood samples [1]; 1 μM in combination with 21 mM glucose
  increase of genomic DNA in the plasma (18S DNA duplex assay): only a minor increase of genomic DNA
Whole blood samples [1]; 4 μM in combination with 21 mM glucose
  increase of genomic DNA in the plasma (18S DNA duplex assay): ≤ 4 fold
Whole blood samples [1]
  x-fold increase of ribosomal 18S DNA in plasma: reduced increase of DNA
Whole blood samples [2]; 1 μM caspase inhibitor with 21.4 mM glucose
  genomic DNA release/fragmentation: significantly reduced the genomic DNA release/fragmentation
Whole blood samples [2]; 4 μM caspase inhibitor with 21.4 mM glucose, compared with 1 μM
  genomic DNA release/fragmentation: improved
Whole blood samples [2]
  ladder-like pattern of DNA bands (release/fragmentation of genomic DNA): significantly reduced ladder-like patterns

## N=c1sc2c(n1CC(=O)c1ccc([N+](=O)[O-])cc1)CCCC2 [Pifithrin-α, p-Nitro]
[4]
  potency relative to Pifithrin-α: 100-fold more potent than Pifithrin-α when adminstered in rats in
[5]
  EC50: 300 nM

## Humanin, Human, Synthetic: A 24-residue anti-apoptotic peptide
[6]
  Kd: ~2 nM

## O=[N+]([O-])c1ccc(-c2cn3c4c(sc3n2)CCCC4)cc1 [Pifithrin-α, p-Nitro, Cyclic]
[7]
  half-life longer than Pifithrin-α: 50%
[5]
  potency relative to Pifithrin-α: A cell-permeable p53 inhibitor that exhibits 10-fold higher potency
  EC50: 30 nM

## OC[C@@H](O)[C@@H](O[C@H]1O[C@H](CO)[C@@H](O)[C@H](O)[C@H]1O)[C@H](O)[C@@H](O)CO [maltitol, 4-O-α-D-Glucopyranosyl-D-glucitol]
Whole blood samples [1]; concentrations ≤0.01M, room temperature up to six days
  relative change of ccfDNA level (day X copies/day 0 copies): suitable alternatives

## OCC(O)C(O)C(O)C(O)CO (stereo not drawn) [mannitol, Hexane-1,2,3,4,5,6-hexol]
Whole blood samples [1]; 0.1, 0.05, 0.01 M tested, room temperature
  relative change of ccfDNA level (day X copies/day 0 copies): stabilization effects over 3 days

## H-Val-Pro-Met-Leu-Lys-OH (H-VPMLK-OH) [Bax-Inhibiting Peptide, V5]
Bax-mediated apoptosis
  effective concentration for Bax-mediated apoptosis: mediated apoptosis (~50-200 μM). Also effectively blocks caspase-

## COc1cc(-n2c(=S)[nH]c3ccccc3c2=O)c(Cl)cc1Cl [Mdivi-1, 3-(2,4-Dichloro-5-methoxyphenyl)-2,3-dihydro-2-thioxo-4(1H)-quinazolinone]
Mitochondrial division
  IC50: ~10000 nM

## Cbz-Ala-Ala-Asp-CH2Cl [Granzyme B Inhibitor I]
Fragmentin 2
  IC50: 300 nM

## O[C@H]1[C@H](O)[C@@H](O)[C@H](O)[C@@H](O)[C@H]1O [inositol, Cyclohexane-1,2,3,4,5,6-geksol]
Whole blood samples [1]; concentrations of for example 0.05 M, room temperature up to six days
  relative change of ccfDNA level (day X copies/day 0 copies): suitable alternatives
